For the test, the system named is Aliivibrio fischeri bacteria. In words: Toxicity test: EC-50 for the luminescence of Aliivibrio fischeri bacteria. The format is cell-based. The note with it: for EC-50 for this ionic liquid: worked out from the dilution EC-50 and the ionic liquid content of the solution. On the procedure:
After filtration to remove the precipitate, this solution, which contains approximately 0.014 mg of ionic liquid/mg solution, was tested for toxicity. The half maximal effective concentration (EC-50) for this solution was then determined for the luminescence of Aliivibrio fischeri bacteria to assess the toxicity of the solution. […] 10.1 grams of a tri-butyl pentyl phosphonium ionic liquid (TBPP) was added to 770 grams of deionized (DI) water, giving a pH of about 3. […] After filtration to remove the precipitate, this solution, which contains approximately 0.013 mg of ionic liquid/mg solution, was tested for toxicity. The EC-50 for this solution was then determined for the luminescence of Aliivibrio fischeri bacteria to assess the toxicity of the solution.

Setting [1] is: luminescence of Aliivibrio fischeri.

The values below come from patent US20180272327A1, “IONIC LIQUID CATALYST TREATING SYSTEM” (UOP LLC, priority 2015, published 2018).

As to `CCCCn1cc[n+](C)c1.F[P-](F)(F)(F)(F)F` [BMIM, 1-butyl-3-methylimidazolium hexafluorophosphate], the EC50 (Aliivibrio fischeri, read-out: EC-50 reached at a dilution (of the neutralized, filtered ionic liquid solution)) was 5.7 µg/mL. Further, the “EC-50 for this ionic liquid” value under setting [1] is recorded as “approximately 80 ppB”.

“tri-butyl pentyl phosphonium ionic liquid [TBPP]”: the “EC-50 reached at a dilution (of the neutralized, filtered ionic liquid solution)” value (luminescence of Aliivibrio fischeri, ionic liquid in DI water neutralized with NaOH to pH approximately 6, precipitate filtered off, approximately 0.013-0.014 mg ionic liquid/mg solution) was found to be 1.2 mg solution/Liter water. For the same compound, the “EC-50 for this ionic liquid” value under setting [1] is recorded as “approximately 16 ppB”.
